In PubChem BioAssay AID256 (DTP/NCI, 2004):
Where “and” joins values, the source holds several entries; their conditions need not be identical. Identical values can stand only once. Toxic doses and inconclusive results are not listed.

Tested on: CD2F1 mice, L1210 leukemia ip, survival T/C
Test: NCI In Vivo Anticancer Drug Screen. Data for tumor model L1210 Leukemia (intraperitoneal) in CD2F1 (CDF1) mice
Conditions: higher = longer survival
In short: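 Activity against a transplanted murine tumor was judged by comparing the compound group with a vehicle group. The outcome in the treated animals was divided by that in the controls.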

For `OCC1OC(n2cnc3c(=S)nc[nH]c32)C(O)C1O` (centres undefined), the T/C (endpoint: mean survival time, dose: 75.0 mg/kg/injection, schedule: Q01DX005 (ip), vehicle: saline) was 104 % of control, the T/C (endpoint: mean survival time, dose: 75.0 mg/kg/injection, schedule: Q01DX009 (ip), vehicle: saline) was 107 % of control and the T/C (endpoint: mean survival time, dose: 75.0 mg/kg/injection, schedule: Q01DX009 (oral), vehicle: saline) was 97 % of control. The T/C (endpoint: mean survival time, dose: 100.0 mg/kg/injection, schedule: Q01DX005 (ip), vehicle: saline) was 122 % of control, the T/C (endpoint: mean survival time, dose: 100.0 mg/kg/injection, schedule: Q01DX007 (ip), vehicle: Klucel (hydroxypropylcellulose) (HPC)) was 115 % of control and the T/C (endpoint: mean survival time, dose: 100.0 mg/kg/injection, schedule: Q01DX007 (ip), vehicle: saline) was 152 % of control. For the same compound, the T/C (endpoint: mean survival time, dose: 100.0 mg/kg/injection, schedule: Q01DX009 (ip), vehicle: Klucel (hydroxypropylcellulose) (HPC)) was 118 % of control, the T/C (endpoint: mean survival time, dose: 100.0 mg/kg/injection, schedule: Q01DX009 (ip), vehicle: saline) was 154 % of control and the T/C (endpoint: mean survival time, dose: 100.0 mg/kg/injection, schedule: Q03DX003 (ip), vehicle: Klucel (hydroxypropylcellulose) (HPC)) was 95 % of control. For the same compound, the T/C (endpoint: mean survival time, dose: 100.0 mg/kg/injection, schedule: Q04DX003 (ip), vehicle: Klucel (hydroxypropylcellulose) (HPC)) was 102 % of control, the T/C (endpoint: mean survival time, dose: 100.0 mg/kg/injection, schedule: Q04DX003 (ip), vehicle: saline) was 113 % of control and the T/C (endpoint: mean survival time, dose: 112.0 mg/kg/injection, schedule: Q01DX010 (ip), vehicle: saline) was 110 % of control. The T/C (endpoint: mean survival time, dose: 150.0 mg/kg/injection, schedule: Q01DX005 (ip), vehicle: saline) was 107 % of control, the T/C (endpoint: mean survival time, dose: 150.0 mg/kg/injection, schedule: Q01DX009 (ip), vehicle: saline) was 116 % of control and the T/C (endpoint: mean survival time, dose: 150.0 mg/kg/injection, schedule: Q01DX009 (oral), vehicle: saline) was 98 % of control. For the same compound, the T/C (endpoint: mean survival time, dose: 200.0 mg/kg/injection, schedule: Q01DX007 (ip), vehicle: saline) was 157 % of control, the T/C (endpoint: mean survival time, dose: 200.0 mg/kg/injection, schedule: Q01DX009 (ip), vehicle: saline) was 179 % of control and the T/C (endpoint: mean survival time, dose: 200.0 mg/kg/injection, schedule: Q03DX003 (ip), vehicle: Klucel (hydroxypropylcellulose) (HPC)) was 102 % of control. For the same compound, the T/C (endpoint: mean survival time, dose: 200.0 mg/kg/injection, schedule: Q03DX003 (ip), vehicle: saline) was 150 % of control, the T/C (endpoint: mean survival time, dose: 200.0 mg/kg/injection, schedule: Q04DX003 (ip), vehicle: Klucel (hydroxypropylcellulose) (HPC)) was 100 % of control and the T/C (endpoint: mean survival time, dose: 200.0 mg/kg/injection, schedule: Q04DX003 (ip), vehicle: saline) was 150 % of control. The T/C (endpoint: mean survival time, dose: 240.0 mg/kg/injection, schedule: Q01DX005 (ip), vehicle: saline) was 164 % of control, the T/C (endpoint: mean survival time, dose: 300.0 mg/kg/injection, schedule: Q01DX002 (sc), vehicle: saline) was 109 % of control and the T/C (endpoint: mean survival time, dose: 300.0 mg/kg/injection, schedule: Q01DX009 (oral), vehicle: saline) was 105 % of control. The T/C (endpoint: mean survival time, dose: 300.0 mg/kg/injection, schedule: Q04DX003 (ip), vehicle: saline) was 108 % of control, the T/C (endpoint: mean survival time, dose: 400.0 mg/kg/injection, schedule: Q01DX007 (ip), vehicle: saline) was 104 % of control and the T/C (endpoint: mean survival time, dose: 400.0 mg/kg/injection, schedule: Q01DX009 (ip), vehicle: saline) was 116 % of control. For the same compound, the T/C (endpoint: mean survival time, dose: 400.0 mg/kg/injection, schedule: Q03DX003 (ip), vehicle: Klucel (hydroxypropylcellulose) (HPC)) was 111 % of control, the T/C (endpoint: mean survival time, dose: 400.0 mg/kg/injection, schedule: Q03DX003 (ip), vehicle: saline) was 154 % of control and the T/C (endpoint: mean survival time, dose: 400.0 mg/kg/injection, schedule: Q04DX003 (ip), vehicle: Klucel (hydroxypropylcellulose) (HPC)) was 111 % of control. For the same compound, the T/C (endpoint: mean survival time, dose: 400.0 mg/kg/injection, schedule: Q04DX003 (ip), vehicle: saline) was 175 % of control, the T/C (endpoint: mean survival time, dose: 480.0 mg/kg/injection, schedule: Q01DX005 (ip), vehicle: saline) was 156 % of control and the T/C (endpoint: mean survival time, dose: 600.0 mg/kg/injection, schedule: Q01DX001 (ip), vehicle: saline) was 97 % of control. The T/C (endpoint: mean survival time, dose: 600.0 mg/kg/injection, schedule: Q01DX002 (ip), vehicle: saline) was 104 % of control, the T/C (endpoint: mean survival time, dose: 600.0 mg/kg/injection, schedule: Q01DX002 (sc), vehicle: saline) was 116 % of control and the T/C (endpoint: mean survival time, dose: 600.0 mg/kg/injection, schedule: Q01DX009 (oral), vehicle: saline) was 97 % of control. For the same compound, the T/C (endpoint: mean survival time, dose: 600.0 mg/kg/injection, schedule: Q03HX008 (ip), vehicle: saline) was 119 % of control, the T/C (endpoint: mean survival time, dose: 600.0 mg/kg/injection, schedule: Q03HX016 (ip), vehicle: saline) was 121 % of control and the T/C (endpoint: mean survival time, dose: 600.0 mg/kg/injection, schedule: Q04DX003 (ip), vehicle: saline) was 114 % of control. For the same compound, the T/C (endpoint: mean survival time, dose: 600.0 mg/kg/injection, schedule: Q08DX002 (ip), vehicle: saline) was 104 % of control, the T/C (endpoint: mean survival time, dose: 900.0 mg/kg/injection, schedule: Q01DX002 (ip), vehicle: saline) was 118 % of control and the T/C (endpoint: mean survival time, dose: 1200.0 mg/kg/injection, schedule: Q01DX001 (ip), vehicle: saline) was 97 % of control. For the same compound, the T/C (endpoint: mean survival time, dose: 1200.0 mg/kg/injection, schedule: Q01DX002 (ip), vehicle: saline) was 116 % of control, the T/C (endpoint: mean survival time, dose: 1200.0 mg/kg/injection, schedule: Q01DX009 (ip), vehicle: saline) was 113 % of control and the T/C (endpoint: mean survival time, dose: 1200.0 mg/kg/injection, schedule: Q03HX016 (ip), vehicle: saline) was 154 % of control. For the same compound, the T/C (endpoint: mean survival time, dose: 1200.0 mg/kg/injection, schedule: Q03HX024 (ip), vehicle: saline) was 155 % of control and 158 % of control, the T/C (endpoint: mean survival time, dose: 1200.0 mg/kg/injection, schedule: Q08DX002 (ip), vehicle: saline) was 115 % of control and the T/C (endpoint: mean survival time, dose: 2400.0 mg/kg/injection, schedule: Q01DX001 (ip), vehicle: saline) was 98 % of control. For the same compound, the T/C (endpoint: mean survival time, dose: 2400.0 mg/kg/injection, schedule: Q03HX016 (ip), vehicle: saline) was 156 % of control, the T/C (endpoint: median survival time, dose: 40.0 mg/kg/injection, schedule: Q01DX009 (ip), vehicle: saline) was 114 % of control and 122 % of control and the T/C (endpoint: median survival time, dose: 160.0 mg/kg/injection, schedule: Q01DX009 (ip), vehicle: saline) was 155 % of control and 185 % of control. For the same compound, the T/C (endpoint: median survival time, dose: 320.0 mg/kg/injection, schedule: Q01DX009 (ip), vehicle: saline) was 185 % of control and the T/C (endpoint: median survival time, dose: 400.0 mg/kg/injection, schedule: Q01DX005 (ip), vehicle: water) was 150 % of control.

`Nc1cccc(/C=C/c2nc(N)nc(N)c2-c2ccc(Cl)c(Cl)c2)c1` was tested, and the T/C (endpoint: mean survival time, dose: 75.0 mg/kg/injection, schedule: Q01DX001 (ip), vehicle: saline) was 91 % of control, the T/C (endpoint: mean survival time, dose: 150.0 mg/kg/injection, schedule: Q01DX001 (ip), vehicle: saline) was 92 % of control and the T/C (endpoint: mean survival time, dose: 300.0 mg/kg/injection, schedule: Q01DX001 (ip), vehicle: saline) was 91 % of control.

For `O=C1[O][Hg][c]2cc([N+](=O)[O-])cc3cccc1c23.O=C1[O][Hg][c]2cccc3cc([N+](=O)[O-])cc1c23`, the T/C (endpoint: mean survival time, dose: 100.0 mg/kg/injection, schedule: Q01DX001 (ip), vehicle: saline) was 94 % of control, the T/C (endpoint: mean survival time, dose: 200.0 mg/kg/injection, schedule: Q01DX001 (ip), vehicle: saline) was 94 % of control and the T/C (endpoint: mean survival time, dose: 400.0 mg/kg/injection, schedule: Q01DX001 (ip), vehicle: saline) was 94 % of control.

`CC[CH2][Sn]([CH2]CC)([CH2]CC)[O][Sn]([CH2]CC)([CH2]CC)[CH2]CC` was tested, and the T/C (endpoint: mean survival time, dose: 125.0 micrograms/kg/injection, schedule: Q01DX009 (ip), vehicle: saline) was 95 % of control, the T/C (endpoint: mean survival time, dose: 250.0 micrograms/kg/injection, schedule: Q01DX009 (ip), vehicle: saline) was 95 % of control and the T/C (endpoint: mean survival time, dose: 500.0 micrograms/kg/injection, schedule: Q01DX009 (ip), vehicle: saline) was 106 % of control. The T/C (endpoint: mean survival time, dose: 1000.0 micrograms/kg/injection, schedule: Q01DX009 (ip), vehicle: saline) was 93 % of control.

With `CCOC(=O)c1ccc2c(c1)Cc1cc([N+](=O)[O-])ccc1-2` the T/C (endpoint: mean survival time, dose: 100.0 mg/kg/injection, schedule: Q01DX001 (ip), vehicle: carboxymethylcellulose (CMC)) was 98 % of control, the T/C (endpoint: mean survival time, dose: 200.0 mg/kg/injection, schedule: Q01DX001 (ip), vehicle: carboxymethylcellulose (CMC)) was 95 % of control and the T/C (endpoint: mean survival time, dose: 400.0 mg/kg/injection, schedule: Q01DX001 (ip), vehicle: carboxymethylcellulose (CMC)) was 95 % of control.

For `CN=C([Se])NC`, the T/C (endpoint: mean survival time, dose: 3.13 mg/kg/injection, schedule: Q01DX005 (ip), vehicle: saline with Tween-80) was 108 % of control, the T/C (endpoint: mean survival time, dose: 6.25 mg/kg/injection, schedule: Q01DX005 (ip), vehicle: saline with Tween-80) was 103 % of control and the T/C (endpoint: mean survival time, dose: 12.5 mg/kg/injection, schedule: Q01DX005 (ip), vehicle: saline with Tween-80) was 116 % of control. For the same compound, the T/C (endpoint: mean survival time, dose: 12.5 mg/kg/injection, schedule: Q04DX002 (ip), vehicle: saline with Tween-80) was 102 % of control and the T/C (endpoint: mean survival time, dose: 25.0 mg/kg/injection, schedule: Q04DX002 (ip), vehicle: saline with Tween-80) was 104 % of control.

With `CSCCCNC(=O)c1csc(CCNC(=O)c2ccccc2)n1` the T/C (endpoint: mean survival time, dose: 100.0 mg/kg/injection, schedule: Q01DX009 (ip), vehicle: saline with Tween-80) was 108 % of control, the T/C (endpoint: mean survival time, dose: 200.0 mg/kg/injection, schedule: Q01DX009 (ip), vehicle: saline with Tween-80) was 101 % of control and the T/C (endpoint: mean survival time, dose: 400.0 mg/kg/injection, schedule: Q01DX009 (ip), vehicle: saline with Tween-80) was 101 % of control.

With `CC[N+]1(Cc2ccccc2)CC2(CCCCC2)ON2C1CC(C)C2(C)C` (centres undefined) the T/C (endpoint: mean survival time, dose: 25.0 mg/kg/injection, schedule: Q01DX009 (ip), vehicle: saline with Tween-80) was 92 % of control and the T/C (endpoint: mean survival time, dose: 50.0 mg/kg/injection, schedule: Q01DX009 (ip), vehicle: saline with Tween-80) was 93 % of control.

`OC1(Cc2ccccc2)CCCCCC1` was tested, and the T/C (endpoint: mean survival time, dose: 100.0 mg/kg/injection, schedule: Q04DX002 (ip), vehicle: other) was 95 % of control, the T/C (endpoint: mean survival time, dose: 200.0 mg/kg/injection, schedule: Q04DX002 (ip), vehicle: other) was 92 % of control and the T/C (endpoint: mean survival time, dose: 400.0 mg/kg/injection, schedule: Q04DX002 (ip), vehicle: other) was 92 % of control.
